# Data as given in patent US8338363B2, “Pharmaceutical compositions comprising casein derived peptides and methods of use thereof” (Mileutis Ltd., priority 2005, dated 2012).
# Test: Welfare of cows induced to dry off (Example 6): udder pressure index, steps/lying ratio
# Format: in vivo, Holstein cows
# Protocol: 20 Holstein cows toward the end of lactation (˜60 days) and producing 17-35 liters milk per day were entered to the study. Cows were paired according to lactation number, days in milk, days to parturition, teat-end integrity, milk yield, SCC per ml of milk per cow or quarter and number of quarters infected at day of drying-off (Table 13).
# Quarter's milk SCC and bacterial isolation were tested a week apart for 3 times, before drying-off. One cow of each pair was then assigned to a subgroup randomly (by flipping a coin). Cows in subgroup 1 were treated after milking with casein hydrolyzate and with the broad range antibiotic Cefquinome, (75 mg per dose) (N+C), while the cows in subgroup 2 were treated with Cefquinome alone (75 mg per dose) (C). […]
# Udder pressure index (UPI) was set as follows: 0, 1, 2 and 3, where 0 is no pressure, 1 is medium pressure, 2 is high pressure and 3 is extremely high pressure. Arbitrary UPI values were determined by assessing the udder pressure by pressing a finger into the tissue and assessing its resistant to pressure in two areas, the milk cistern and corpus ubeis, 10 cm above the teats. […]
# Data were statistically analyzed using the fit model procedure for repeated measurements of JMP (Version 5, SAS Institute, Cary, N.C.); treatment was the between-subject factor and time was the within-subject factor. […]
smiles,measurement,setting,value
"CO/N=C(\C(=O)N[C@@H]1C(=O)N2C(C(=O)[O-])=C(C[n+]3cccc4c3CCCC4)CS[C@H]12)c1csc(N)n1 [C, Cefquinome]","Udder pressure index (UPI), single cow","day 4 after treatment, cow with milk yield over 30 liters per day at dry-off (FIG. 4)",~2
same,ratio between number of steps and duration of lying (RSL),"from the second day after treatment, 10 cows per group (FIG. 5)",unchanged
